Reference: patent US11207289B2, “Use of benzofuran lignans to induce IL-25 expression and suppress mammary tumor metastasis” (ACADEMIA SINICA, priority 2016, dated 2021)

Key:
SKBR3 cells = test: MTT assay, cytotoxic effect on SKBR3; format: cell-based, human
Description: (§1) M10, WI38, SKBR3, and MDA-MB-231 cells (1×10^5 cells/ml) dispensed in 96-well plates were incubated with vehicle or test compounds (Q2-3) for 24 h or 72 h in corresponding basal medium in a 5% CO2 incubator. To evaluate the effect of secreted IL-25 from Q2-3-treated fibroblasts on growth activity of mammary tumor cells, 4T1 and MDA-MB-231 cells (1×10^4 cells/ml) dispensed in 96-well plates were incubated with control medium or different fibroblast conditioned media (200 μl/ml) which was changed daily for 5 days. All treatments were performed in triplicate cell cultures. The growth activity of cells was assayed using a 3-(4, 5-dimethythiazol-2-yl)-2, 5-diphenyl tetrazolium bromide (MTT; Sigma-Aldrich) colorimetric method. The absorbance at 570 nm (A570) was measured using a multiwall scanning spectrophotometer.
FIG. 1 is a schematic depiction of cytotoxic effects of dihydrobenzofuran lignan (Q2-3) on breast tumor cells. (a): Scheme for synthesis of Q2-3 (methyl (E)-3-[2-(3,4-dihydroxyphenyl)-7-hydroxy-3-methoxycarbonyl-2,3-dihydro-1-benzofuran-5yl]prop-2-enoate) from two caffeic acid methyl ester molecules. (b) and (c): MTT assays for cytotoxic effect of Q2-3 on SKBR3 (ER^−Her^+ human breast cancer cell line), MDA-MB-231 (ER^−Her^− human breast cancer cell line), M10 (human normal epithelial cell line) and WI38 (human lung fibroblast cell line). 2×10^4 cells were seeded and compared for their growth activity after treatment with Q2-3 for 24 or 72 h. The beginning cytotoxic dosage of Q2-3 was detected at 0.3 μM, with >50% kill rate on SKBR3 and MDA-MB-231 cells.
The effects of Q2-3 on cell viability were tested on four different cell lines, i.e., normal human mammary epithelial (M10), normal human […] (WI38), and two human mammary tumor cells (SKBR3 and MDA-MB-231), by treating cells with Q2-3 at various concentrations for 24 h (FIG. 1b) and 72 h (FIG. 1c).

IL-25 = IL-25 expression in lung fibroblasts, 4T1 tumor resection model (IF staining, flow cytometry); format: in vivo, mice
Description: BALB/c mice were subcutaneously injected with 4T1-Luc2 cells (5×10^5/100 μl PBS/mouse) into the fourth mammary fat pad under isoflurane anesthesia. Tumor growth was monitored by measuring the tumor volume according to the formula: volume=length×(width)^2/2. After tumors were established (180-200 mm^3) on day 14, test mice were divided into different groups (8 mice/group) and subjected to different treatments. At 15 days post tumor cell implantation, primary 4T1 tumors in situ were surgically removed by a tumor resection process. For drug treatment, mice were administered with different agents, including vehicle-control (PBS), mouse IL-25 protein (10 μg/kg, ProSpec, Vineland, N.J.), Q2-3 (2, 20 or 100 μg/kg) or docetaxel (2 mg/kg; Sigma-Aldrich), by intravenous injection for 3 weeks (3 injections/week) post tumor resection. For in vivo neutralization of mouse IL-25 activity, mice were treated intraperitoneally with either 100 μg anti-mouse IL-25 (IL-17E) antibody (clone 35B; Biolegend) or isotype control rat IgG (100 μg; rat, IgG1κ; Biolegend) at days 0, 3, 6, 9, 12, 15, 18 post tumor resection. To detect metastasis of human MDA-MD-231-Luc2 tumor cells, nude mice were injected subcutaneously with 5×10^5 MDA-MD-231-Luc2 cells into the mammary fat pad under isoflurane anesthesia. After tumors were established (250-350 mm^3) on day 24, test mice were divided into different groups (8 mice/group) and subjected to different treatments. At 25 days post tumor cell implantation, primary MDA-MD-231-Luc2 tumors in situ were surgically removed by a tumor resection process. For drug treatment, mice were administered with PBS (vehicle-control), Q2-3 (100 μg/kg), docetaxel (5 mg/kg) or Q2-3 (100 μg/kg)+docetaxel (5 mg/kg), by intravenous injection for 3 weeks (3 injections/week) post tumor resection. To monitor the progression of mouse (4T1) or human (MDA-MD-231) metastatic tumors, test mice treated with different drugs/agents were compared for their tumor metastatic activity and survival rate aftern another 8 weeks. Bioluminescence signals from the 4T1-luc2 tumor cells in test mice were analyzed using a non-invasive IVIS imaging system (Calipers, Hopkinton, Mass.) after intraperitoneal injection of 150 mg/kg D-luciferin (NanoLight technology, Pinetop, Ariz.).
Lung tissue specimens obtained from each tumor-resected mouse were fixed with 4% formalin and embedded in paraffin. For histological comparison, 6 μm-thick tissue sections were made and stained with hematoxylin and eosin (H&E). For immunofluorescence staining, fixed tissue sections were initially immersed in boiling sodium citrate buffer (0.01 M sodium citrate buffer, pH 6.0) for 30 min Lung tissue sections were blocked with 5% nonfat milk, and incubated with anti-FSP-1 antibody (1:200 dilution; Millipore), FITC-conjugated anti-CD206 antibody (1:200 dilution; Biolegend) or PE-conjugated anti-IL-25 antibody (1:100; R&D) in 1% nonfat milk for 1 hour at room temperature. Sections were then washed with PBS containing 0.1% Tween 20. To detect primary antibodies, some sections were incubated with FITC-conjugated anti-mouse-IgG (1:200; Jackson Immunoresearch, West Grove, Pa.) for FSP-1. 4′,6-Diamidino-2-phenylindole dihydrochloride (1 μg/ml; Sigma-Aldrich) was used to stain the nuclei. Fluorescence microscopy evaluation of immunostained tissue sections was performed using a Zeiss Axiovert 200 M microscope (Carl Zeiss, Heidelberg, Germany) Images were captured with a digital camera (Orca ER, Hamamatsu) and processed using Axiovision 4.6.3 (Carl Zeiss).
For detection of myeloid derived suppressor cells (MDSCs), cells from mouse lung tissue in each group were collected and stained for 30 min at 4° C. with antibodies against specific cell markers, including FITC-conjugated anti-mouse CD11b (for cell surface), APC-Cy7 conjugated anti-mouse Ly-6C and PE conjugated anti-mouse Ly-6G, (both for intracellular staining). All three antibodies were obtained from Biolegend, (San Diego, Calif.). […]

[1] = MTT assay, cytotoxic effect on WI38; format: cell-based; details: human, WI38 cells (human fibroblast cell line)
Description: as §1
FIG. 1 is a schematic depiction of cytotoxic effects of dihydrobenzofuran lignan (Q2-3) on breast tumor cells. (a): Scheme for synthesis of Q2-3 (methyl (E)-3-[2-(3,4-dihydroxyphenyl)-7-hydroxy-3-methoxycarbonyl-2,3-dihydro-1-benzofuran-5yl]prop-2-enoate) from two caffeic acid methyl ester molecules. […] The beginning cytotoxic dosage of Q2-3 was detected at 0.3 μM, with >50% kill rate on SKBR3 and MDA-MB-231 cells. […]

SMILES: COC(=O)/C=C/c1cc(O)c2c(c1)C(C(=O)OC)C(c1ccc(O)c(O)c1)O2 (centres unmarked) [Q2-3, methyl(E)-3-[2-(3,4-dihydroxyphenyl)-7-hydroxy-3-methoxycarbonyl-2,3-dihydro-1-benzofuran-5yl]-prop-2-enoate]
- inhibition at 0.5 µM (SKBR3 cells; Homo sapiens, SK-BR-3, ≥0.5 μM, 24 h and 72 h, vs 0.1% DMSO control, read-out: growth inhibition): ≥ 60%
- kill rate (SKBR3 cells; at 0.3 μM): > 50%
- beginning cytotoxic dosage (SKBR3 cells; treatment 24 or 72 h): 0.3 µM
- total FSP-1+ER-TR7+ fibroblast population in lung (IL-25; 3 weeks post tumor resection, PBS control 5.2%): 7.3%
- cell population of IL-25+ fibroblasts (FSP-1+ER-TR7+IL-25+ cells) in lung (IL-25; 3 weeks post tumor resection, PBS control 16.7%): 79.5%
- IL-25 expression in lung fibroblasts (IF staining) (IL-25; Q2-3 100 μg/kg, 21 days post tumor resection): readily detectable stimulatory effect
- increase in FSP-1+IL-25+ fibroblast population in spleen or other tissues (IL-25; data not shown): not detected
- viability at 2 µM [1]: ≥ 80%
